Reference: EP0013742A1, “Substituted sulfonic acid anilides, their preparation and use” (BASF Aktiengesellschaft, priority 1979, dated 1980)

Assays:
Sommergerste (Union) = assay: Growth height reduction in cereals, greenhouse, foliar spray (Beispiel A); type: in vivo, Gerste (Union); conditions: for Pflanzenhöhe cm: sprayed at 10 cm plant height, 18 days growth; for Pflanzenhöhe relativ: untreated control = 100
Text: (§1) Im Gewächshaus wurden die Getreidearten Weizen (Kolibri) und Gerste (Union) in Kunststoffschalen von 11,5 cm Durch- messer in Torfkultursubstrat, welches ausreichend mit Nährstoffen versorgt war, eingesät. Die Wirkstoffe wurden in unterschiedlichen Aufwandmengen über das Blatt zugeführt. Die Applikation erfolgte bei einer Wuchshöhe der Pflanzen von 10 cm in üblicher Weise durch Spritzen.
(§2) Während der Wachstumszeit von 18 Tagen zeigten die behandelten Pflanzen gegenüber der unbehandelten Kontrolle ein deutlich geringeres Längenwachstum, was durch die abschließenden Längenmessungen bestätigt werden konnte. Hierbei wurden von jeder Behandlungsreihe 100 Pflanzen gemessen.

Sommerweizen (Kolibri) = assay: as above; type: in vivo, Weizen (Kolibri); conditions: 18 days growth; for Pflanzenhöhe cm: sprayed at 10 cm plant height, 100 plants measured; for Pflanzenhöhe relativ: untreated control = 100
Text: as §1, §2

Rasen = assay: Effect on grass/lawn, vegetation test in Mitscherlich pots (Beispiel B); type: in vivo; conditions: for 1. Schnitt Pflanzenhöhe relativ / 1. Schnitt Pflanzenhöhe cm: 20 days after treatment; for 1. Schnitt Pflanzenhöhe relativ / 2. Schnitt Pflanzenhöhe relativ: untreated control = 100; for 2. Schnitt Pflanzenhöhe cm: regrowth over 4 weeks after 1st cut (after-effect); for 2. Schnitt Pflanzenhöhe relativ: regrowth over 4 weeks after 1st cut; for 1. Schnitt Pflanzenhöhe cm: sprayed at 4 cm height
Text: In einem Vegetationsversuch in Mitscherlichgefäßen wurde auf einem lehmigen Sandboden Rasen der folgenden Standard--Mischung angesät: Agrostis tenuis 10 %, Cynosurus cristatus 10 %, Festuca rubra 15 %, Lolium perenne 35 % und Poa pratensis 30 %. Die Düngung wurde mit 1,5 g N als Ammonnitrat und 1 ^g P205 als sec. Kaliumphosphat vorgenommen. Nach 2 vorangegangenen Schnitten wurden die Wirkstoffe in verschiedenen Aufwandmengen bei einer Wuchshöhe von 4 cm in üblicher Weise gespritzt. 20 Tage nach der Behandlung wurde die Wuchshöhe bestimmt; nach erfolgtem 1. Schnitt wurde der Wiederaufwuchs über 4 Wochen bis hin zum 2. Schnitt beobachtet und ebenfalls Längenmessungen durchgeführt, um die Nachwirkung zu überprüfen. Gegenüber der Kontrolle reagierten die Pflanzen aus den Behandlungsreihen mit sehr starken Kürzungen. Die Nachwirkung ist besser zu beurteilen als bei der zum Vergleich herangezogenen bekannten Substanz, wie nachstehende Tabelle zeigt.

SMILES	Pflanzenhöhe cm (Sommergerste (Union); Aufwandmenge 0,25 kg/ha)	Pflanzenhöhe relativ (Sommergerste (Union); Aufwandmenge 0,25 kg/ha)	Pflanzenhöhe cm (Sommergerste (Union); Aufwandmenge 0,75 kg/ha)	Pflanzenhöhe relativ (Sommergerste (Union); Aufwandmenge 0,75 kg/ha)	Pflanzenhöhe cm (Sommergerste (Union); Aufwandmenge 1,50 kg/ha)	Pflanzenhöhe relativ (Sommergerste (Union); Aufwandmenge 1,50 kg/ha)	Pflanzenhöhe cm (Sommergerste (Union); Aufwandmenge 3,00 kg/ha)	Pflanzenhöhe relativ (Sommergerste (Union); Aufwandmenge 3,00 kg/ha)	Pflanzenhöhe cm (Sommerweizen (Kolibri); Aufwandmenge 1,5 kg/ha)	Pflanzenhöhe relativ (Sommerweizen (Kolibri); Aufwandmenge 1,5 kg/ha)	Pflanzenhöhe cm (Sommerweizen (Kolibri); Aufwandmenge 6,0 kg/ha)	Pflanzenhöhe relativ (Sommerweizen (Kolibri); Aufwandmenge 6,0 kg/ha)	1. Schnitt Pflanzenhöhe relativ (Rasen; Aufwandmenge 0,5 kg/ha)	2. Schnitt Pflanzenhöhe cm (Rasen; Aufwandmenge 0,5 kg/ha)	2. Schnitt Pflanzenhöhe relativ (Rasen; Aufwandmenge 0,5 kg/ha)	1. Schnitt Pflanzenhöhe cm (Rasen; Aufwandmenge 0,5 kg/ha)	1. Schnitt Pflanzenhöhe relativ (Rasen; Aufwandmenge 0,75 kg/ha)	2. Schnitt Pflanzenhöhe cm (Rasen; Aufwandmenge 0,75 kg/ha)	2. Schnitt Pflanzenhöhe relativ (Rasen; Aufwandmenge 0,75 kg/ha)	1. Schnitt Pflanzenhöhe cm (Rasen; Aufwandmenge 0,75 kg/ha)
CC(=O)Nc1cc(NS(=O)(=O)C(F)(F)F)c(C)cc1C [Mefluidide, 5-Acetamido-2,4--dimethyl-trifluormethansulfonsäureanilid]	27,0 cm	96,4	18,0 cm	64,3	17,5 cm	62,5	16,0 cm	57,1	–	–	–	–	–	–	–	–	–	–	–	–
CC(=O)Nc1ccc(C)c(N(C#N)S(=O)(=O)C(F)(F)F)c1 [Beispiel 67]	–	–	–	–	–	–	–	–	13,5 cm	50,4	12,0 cm	44,8	97,4	11,0 cm	100	14,0 cm	87,4	9,0 cm	81,8	12,5 cm
CC(=O)Nc1ccc(C)c(NS(=O)(=O)C(F)(F)F)c1 [Fluoridamid, 5-Acetam.ido-2-methyl-trifluormethansulfonsäureanilid, reference compound]	–	–	–	–	–	–	–	–	17,0 cm	63,4	15,0 cm	56,0	94,4	11,0 cm	100	13,5 cm	87,4	10,0 cm	90,9	12,5 cm
CC(=O)Nc1cc(N(C#N)S(=O)(=O)C(F)(F)F)c(C)cc1C [Beispiel 1, 5-Acetamido-N -cyano-2,4-dimethyl-trifluormethansulfonsäureanilid]	–	–	–	–	–	–	–	–	13,0 cm	48,5	12,6 cm	46,6	38,5	8,0 cm	72,7	5,5 cm	31,5	7,0 cm	63,6	4,5 cm
